Measurements reported in patent US8318637B2, “Herbicide/azole combination” (Bayer Cropscience AG, priority 2007, dated 2012).

Columns and labels:
Type in all cases: in vivo
[1] = test system: Wheat; assay: Greenhouse trial, post-emergence crop damage, visual scoring; conditions: approx. 4 weeks after application
Description: (§1) The seeds of typical harmful plants and of typical cereal plants were sown, allowed to emerge and grown under greenhouse conditions. Treatment with the compositions according to the invention was carried out after emergence of the harmful plants generally at the 2- to 4-leaf stage at various dosages using a water application rate of 300 l/ha (converted).
(§2) After the treatment (approx. 4 weeks after application), the herbidical activity of the active compounds or active compound mixtures was scored visually by comparing the treated plots with untreated control plots. Damage and development of all above-ground parts of the plants was recorded. Scoring was done on a percentage scale (100% activity=all plants dead; 50% activity=50% of the plants and green plant parts dead; 0% activity=no discernible activity=like control plot).
(§3) The results are listed in the tables below, where the activity measured for the independent use of the active compounds A) and B) is stated in brackets and g of AS/ha means gram of active substance per hectare.

[2] = test system: Lolium multiflorum; assay: Greenhouse trial, post-emergence herbicidal action, visual scoring; conditions: 672 h, approx. 4 weeks after application
Description: as §1, §2, §3

[3] = test system: Alopecurus myosuroidis; assay: as above; conditions: 672 h, approx. 4 weeks after application
Description: as §1, §2, §3

Fc1ccc([C@]2(Cn3cncn3)O[C@H]2c2ccccc2Cl)cc1 (racemic) [epoxiconazole]
0%: Wheat % damage ([1]; 125 g of AS/ha) | Wheat % damage ([1]; 250 g of AS/ha) | inhibition at 125 g/ha ([2]; 125 g of AS/ha) | inhibition at 250 g/ha ([2]; 250 g of AS/ha) | inhibition at 125 g/ha ([3]; 125 g of AS/ha) | inhibition at 250 g/ha ([3]; 250 g of AS/ha)
